# Source: US20250197409A1, “BIFUNCTIONAL COMPOUND AND PHARMACEUTICAL COMPOSITION COMPRISING THE BIFUNCTIONAL COMPOUND, AND METHOD FOR TREATING ANDROGEN RECEPTOR RELATED DISEASE BY USING THE SAME” (ANHORN MEDICINES CO., LTD., priority 2022, published 2025)
# Read-outs that look alike come from different tables or passages of the source.
# Experiments:
# [1] = molecular target: T1, androgen receptor (Homo sapiens, UniProt P10275, T878A); experiment: Androgen receptor degradation assay using Western blot analysis; format: cell-based
# T1 construct: host or cells: LNCaP.FGC
# Outline: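 LNCaP.FGC cells (2×10^5/well) treated with 10-fold serial dilutions in RPMI from 100 nM stock; untreated cells as negative control. AR Western signal normalized to GAPDH, expressed as % remaining versus untreated (100%). DC50 derived from calibration curve of serial dilutions.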
# [2] = test system: Androgenetic Alopecia (AGA) Mice Model; experiment: In vivo hair regrowth efficacy in androgenetic alopecia (AGA) mice model; settings: DHT pre-treated male C57BL/6 mice, topical 3.5 μg/cm2/day once daily, day 20; DHT+vehicle group 3.5
# Description: Seven-week old male C57BL/6 mice (with black fur) purchased from BioLASCO Taiwan Co., Ltd. were grouped 6 to 8 mice per cage, and intraperitoneally administered with dihydrotestosterone (DHT) (1 mg/day, dissolved in corn oil) or corn oil alone once daily for four days. DHT is an agonist to androgen receptors, which can be used to induce symptoms of androgenetic alopecia.
# Four days later, the dorsal region of the mice was depilated with hair removal cream (Nair Sensitive Hair Removal Cream, 100 mg to 200 mg per mouse). After hair removal, the skin color was recorded by photographs with a resolution of 4032*3024 pixel (day 1, D1). On the next day (D2), the test solutions of the compound 29 and compound 33 in a vehicle were prepared (3.5 μg/cm^2/day), and each test solution or vehicle alone was topically administered on the depilated region once daily for 20 days. The hair removal cream, the test solution and the vehicle were separately rubbed into the dorsal region of mice. The photographs underwent analysis using a self-developed software that utilized auto-image segmentation, primarily focusing on the border of the depilation area. This segmentation process involved classifying different regions within the images. […] The hair regrowth efficacy could be evaluated by the photographs and/or the skin color score.
# [3] = 24 h, read-out: Androgen Receptor Remaining (%), LNCaP.FGC cells, 100 nM, 24 hr, normalized to GAPDH, untreated cells = 100%
# [4] = read-out: AR DC50 (concentration needed for 50% AR degradation); LNCaP.FGC cells, serial 10x dilutions from 100 nM
# [5] = 24 h, LNCaP.FGC cells, 100 nM, 24 hr, normalized to GAPDH, untreated cells = 100%; read-out: Androgen Receptor Remaining (%)
# [6] = LNCaP.FGC cells, serial 10x dilutions from 100 nM; read-out: AR DC50 (concentration needed for 50% AR degradation)
# T1 sequence (P10275 whole entry T878A): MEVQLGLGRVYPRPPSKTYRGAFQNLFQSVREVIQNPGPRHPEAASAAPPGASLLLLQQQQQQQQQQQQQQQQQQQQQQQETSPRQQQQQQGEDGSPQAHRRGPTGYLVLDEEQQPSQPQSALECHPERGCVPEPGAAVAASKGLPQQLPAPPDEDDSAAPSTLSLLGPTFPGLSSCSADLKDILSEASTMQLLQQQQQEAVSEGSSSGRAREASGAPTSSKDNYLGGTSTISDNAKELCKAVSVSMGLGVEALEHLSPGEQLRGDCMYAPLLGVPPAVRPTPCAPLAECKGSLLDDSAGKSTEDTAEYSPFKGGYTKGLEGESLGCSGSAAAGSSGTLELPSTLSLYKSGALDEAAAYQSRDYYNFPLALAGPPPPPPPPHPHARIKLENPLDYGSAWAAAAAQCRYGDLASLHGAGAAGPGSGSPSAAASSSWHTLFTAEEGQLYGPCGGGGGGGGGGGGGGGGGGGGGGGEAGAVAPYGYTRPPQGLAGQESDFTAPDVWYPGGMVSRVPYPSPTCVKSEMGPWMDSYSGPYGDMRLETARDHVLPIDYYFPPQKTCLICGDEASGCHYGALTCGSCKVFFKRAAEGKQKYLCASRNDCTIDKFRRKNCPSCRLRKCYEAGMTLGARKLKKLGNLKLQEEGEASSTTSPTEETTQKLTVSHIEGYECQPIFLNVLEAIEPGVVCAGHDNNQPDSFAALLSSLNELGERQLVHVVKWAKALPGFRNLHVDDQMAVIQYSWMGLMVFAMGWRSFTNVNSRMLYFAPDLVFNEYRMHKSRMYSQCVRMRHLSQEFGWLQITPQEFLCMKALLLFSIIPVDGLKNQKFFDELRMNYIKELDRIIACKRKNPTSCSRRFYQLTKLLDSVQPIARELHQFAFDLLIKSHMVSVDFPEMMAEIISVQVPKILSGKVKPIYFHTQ
# T1 sequence (Q96SW2 whole entry partner): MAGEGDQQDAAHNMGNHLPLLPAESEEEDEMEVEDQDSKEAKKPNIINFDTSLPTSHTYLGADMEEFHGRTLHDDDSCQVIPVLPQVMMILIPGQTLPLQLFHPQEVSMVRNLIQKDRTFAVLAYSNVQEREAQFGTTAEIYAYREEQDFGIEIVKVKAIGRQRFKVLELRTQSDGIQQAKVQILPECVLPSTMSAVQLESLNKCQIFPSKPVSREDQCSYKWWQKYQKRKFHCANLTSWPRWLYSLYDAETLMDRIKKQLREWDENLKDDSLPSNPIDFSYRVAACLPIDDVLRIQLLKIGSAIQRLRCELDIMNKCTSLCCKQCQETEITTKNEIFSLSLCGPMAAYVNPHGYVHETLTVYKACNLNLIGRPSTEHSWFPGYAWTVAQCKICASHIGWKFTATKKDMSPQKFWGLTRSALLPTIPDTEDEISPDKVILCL
compound,measurement,setting,value
CCn1c2c(c3ccc(OCCN4CCN(c5ccc(C(=O)N[C@H]6CC[C@H](Oc7ccc(C#N)c(Cl)c7)CC6)nn5)CC4)cc31)C(=O)N(C1CCC(=O)NC1=O)C2=O (stereo partly drawn) [Compound 33],remaining activity at 0.1 µM,[1]; [3],27%
same,DC50,[1]; [4],0.01 to 0.025 µM
same,"average skin color score (1 = depilated skin, 8 = fully regrown hair)",[2],6.5
CCn1c2c(c3ccc(OCCCN4CCN(c5ccc(C(=O)N[C@H]6CC[C@H](Oc7ccc(C#N)c(Cl)c7)CC6)nn5)CC4)cc31)C(=O)N(C1CCC(=O)NC1=O)C2=O (stereo partly drawn) [Compound 29],remaining activity at 0.1 µM,[1]; [3],31%
same,DC50,[1]; [4],0.01 to 0.025 µM
same,"average skin color score (1 = depilated skin, 8 = fully regrown hair)",[2],8
CCn1c2c(c3ccc(OCC(=O)N4CC5(CCN(c6ccc(C(=O)N[C@H]7CC[C@H](Oc8ccc(C#N)c(Cl)c8)CC7)nn6)CC5)C4)cc31)C(=O)N(C1CCC(=O)NC1=O)C2=O (stereo partly drawn) [Compound 127],remaining activity at 0.1 µM,[1]; [3],58%
CCCn1c2c(c3ccc(OCCCN4CCN(c5ccc(C(=O)N[C@H]6C(C)(C)[C@H](Oc7ccc(C#N)c(Cl)c7)C6(C)C)cn5)CC4)cc31)C(=O)N(C1CCC(=O)NC1=O)C2=O (stereo partly drawn) [Compound 22],remaining activity at 0.1 µM,[1]; [3],89%
CCn1c2c(c3ccc(OCC(=O)N4CCC5(CC4)CN(c4ccc(C(=O)N[C@H]6CC[C@H](Oc7ccc(C#N)c(Cl)c7)CC6)nn4)C5)cc31)C(=O)N(C1CCC(=O)NC1=O)C2=O (stereo partly drawn) [Compound 123],remaining activity at 0.1 µM,[1]; [3],33%
same,DC50,[1]; [4],> 0.1 µM
CCn1c2c(c3ccc(OCC(=O)N4CCCN(c5ccc(C(=O)N[C@H]6CC[C@H](N(C)c7ccc(C#N)c(Cl)c7)CC6)nn5)CC4)cc31)C(=O)N(C1CCC(=O)N(CO)C1=O)C2=O (stereo partly drawn) [Compound 130],remaining activity at 0.1 µM,[1]; [3],51%
CC(COc1ccc2c3c(n(C)c2c1)C(=O)N(C1CCC(=O)NC1=O)C3=O)CN1CCN(c2ccc(C(=O)N[C@H]3CC[C@H](N(C)c4ccc(C#N)c(Cl)c4)CC3)nn2)CC1 (stereo partly drawn) [Compound 189],DC50,[1]; [4],0.01 to 0.025 µM
CCn1c2c(c3ccc(OCCN4[C@H](C)CN(c5ccc(C(=O)N[C@H]6CC[C@H](Oc7ccc(C#N)c(Cl)c7)CC6)nn5)C[C@@H]4C)cc31)C(=O)N(C1CCC(=O)NC1=O)C2=O (stereo partly drawn) [Compound 77],remaining activity at 0.1 µM,[1]; [3],92%
Cn1c2c(c3cccc(OCCCN4CCN(c5ccc(C(=O)N[C@H]6CC[C@H](Oc7ccc(C#N)c(Cl)c7)CC6)nn5)CC4)c31)C(=O)N(C1CCC(=O)NC1=O)C2=O (stereo partly drawn) [Compound 43],remaining activity at 0.1 µM,[1]; [5],26%
same,DC50,[1]; [6],0.025 to 0.1 µM
CCn1c2c(c3ccc(OCCCN4CC5(CCN(c6ccc(C(=O)N[C@H]7CC[C@H](Oc8ccc(C#N)c(Cl)c8)CC7)nn6)CC5)C4)cc31)C(=O)N(C1CCC(=O)NC1=O)C2=O (stereo partly drawn) [Compound 72],Androgen Receptor Remaining (%),"[1]; LNCaP.FGC cells, 100 nM, 24 hr, normalized to GAPDH, untreated cells = 100%",26%
same,DC50,[1]; [4],< 0.01 µM
CCn1c2c(c3ccc(OC4CCN(CC5CCN(c6ccc(C(=O)N[C@H]7C(C)(C)[C@H](Oc8ccc(C#N)c(Cl)c8)C7(C)C)cc6)CC5)CC4)cc31)C(=O)N(C1CCC(=O)NC1=O)C2=O (stereo partly drawn) [Compound 214],DC50,[1]; [4],> 0.1 µM
CC(COc1ccc2c3c(n(C)c2c1)C(=O)N(C1CCC(=O)NC1=O)C3=O)CN1CCN(c2ccc(C(=O)N[C@H]3CC[C@H](Oc4ccc(C#N)c(Cl)c4)CC3)nn2)CC1 (stereo partly drawn) [Compound 188],DC50,[1]; [6],0.025 to 0.1 µM
CCn1c2c(c3ccc(OCCCN4CCC5(CC4)CN(c4ccc(C(=O)N[C@H]6C(C)(C)[C@H](Oc7ccc(C#N)c(Cl)c7)C6(C)C)nn4)C5)cc31)C(=O)N(C1CCC(=O)NC1=O)C2=O (stereo partly drawn) [Compound 49],remaining activity at 0.1 µM,[1]; [3],36%
same,DC50,[1]; [4],0.025 to 0.1 µM
CCn1c2c(c3ccc(OCCCN4CCN(c5ccc(C(=O)N[C@H]6CC[C@H](N(C)c7ccc(C#N)c(Cl)c7)CC6)nn5)CC4)cc31)C(=O)N(C1CCC(=O)NC1=O)C2=O (stereo partly drawn) [Compound 78],remaining activity at 0.1 µM,[1]; [3],57%
same,DC50,[1]; [4],0.01 to 0.025 µM
CCn1c2c(c3ccc(OCCCN4CCC5(CC4)CCN(c4ccc(C(=O)N[C@H]6CC[C@H](Oc7ccc(C#N)c(Cl)c7)CC6)nn4)CC5)cc31)C(=O)N(C1CCC(=O)NC1=O)C2=O (stereo partly drawn) [Compound 183],DC50,[1]; [4],0.01 to 0.025 µM
CCn1c2c(c3ccc(OCCCN4CCN(c5ccc(C(=O)N[C@H]6CC[C@H](Oc7ccc(C#N)c(Cl)c7)CC6)nn5)[C@H](C)C4)cc31)C(=O)N(C1CCC(=O)NC1=O)C2=O (stereo partly drawn) [Compound 98],remaining activity at 0.1 µM,[1]; [3],26%
same,DC50,[1]; [4],0.025 to 0.1 µM
CCn1c2c(c3ccc(OC(C)CCN4CCN(c5ccc(C(=O)N[C@H]6CC[C@H](Oc7ccc(C#N)c(Cl)c7)CC6)nn5)CC4)cc31)C(=O)N(C1CCC(=O)NC1=O)C2=O (stereo partly drawn) [Compound 209],DC50,[1]; [4],0.01 to 0.025 µM
CCn1c2c(c3ccc(OCCCN4CCN(c5ccc(C(=O)N[C@H]6CC[C@H](Oc7ccc(C#N)c(Cl)c7)CC6)nn5)CC4=O)cc31)C(=O)N(C1CCC(=O)NC1=O)C2=O (stereo partly drawn) [Compound 151],remaining activity at 0.1 µM,[1]; [3],57%
Cn1c2c(c3ccc(OCCN4CCCN(c5ccc(C(=O)N[C@H]6CC[C@H](Oc7ccc(C#N)c(Cl)c7)CC6)nn5)CC4)cc31)C(=O)N(C1CCC(=O)NC1=O)C2=O (stereo partly drawn) [Compound 75],remaining activity at 0.1 µM,[1]; [5],26%
same,DC50,[1]; [6],0.01 to 0.025 µM
